# Assay: Stability of cannabinoid and Vitamin E components of Beverage 1 (AB White) stored at 8° C. and 21-25° C., LCMSMS over 570 days
# Type: physicochemical
# Conditions: for Stability in AB White, 8° C. (content by LCMSMS): beverage stored at 8° C.; for Stability in AB White, 21-25° C. (content by LCMSMS): beverage stored at 21-25° C.
# Description: The LCMSMS was calibrated for 0-1000 ng/ml cannabinoids with the same resin material used in the preparation of the concentrates. At each time period, 100 ml of beverage was diluted with 10 ml of methanol and injected into the LCMSMS for analysis.
structure (smiles),measurement,setting,value
"CCCc1cc(O)c2c(c1)OC(C)(C)[C@@H]1CCC(C)=C[C@@H]21 [THCV, delta-9-tetrahydrocannabivarin]","Stability in AB White, 8° C. (content by LCMSMS)",day 0,3.6 µg/mL
same,"Stability in AB White, 8° C. (content by LCMSMS)",day 1,3.54 µg/mL
same,"Stability in AB White, 8° C. (content by LCMSMS)",day 2,3.60 µg/mL
same,"Stability in AB White, 8° C. (content by LCMSMS)",day 3,3.55 µg/mL
same,"Stability in AB White, 8° C. (content by LCMSMS)",day 5,3.58 µg/mL
same,"Stability in AB White, 8° C. (content by LCMSMS)",day 8,3.60 µg/mL
same,"Stability in AB White, 8° C. (content by LCMSMS)",day 9,3.61 µg/mL
same,"Stability in AB White, 8° C. (content by LCMSMS)",day 10,3.58 µg/mL
same,"Stability in AB White, 8° C. (content by LCMSMS)",day 11,3.59 µg/mL
same,"Stability in AB White, 8° C. (content by LCMSMS)",day 12,3.50 µg/mL
same,"Stability in AB White, 8° C. (content by LCMSMS)",day 15,3.56 µg/mL
same,"Stability in AB White, 8° C. (content by LCMSMS)",day 16,3.57 µg/mL
same,"Stability in AB White, 8° C. (content by LCMSMS)",day 17,3.61 µg/mL
same,"Stability in AB White, 8° C. (content by LCMSMS)",day 18,3.59 µg/mL
same,"Stability in AB White, 8° C. (content by LCMSMS)",day 19,3.51 µg/mL
same,"Stability in AB White, 8° C. (content by LCMSMS)",day 22,3.60 µg/mL
same,"Stability in AB White, 8° C. (content by LCMSMS)",day 23,3.55 µg/mL
same,"Stability in AB White, 8° C. (content by LCMSMS)",day 24,3.56 µg/mL
same,"Stability in AB White, 8° C. (content by LCMSMS)",day 25,3.56 µg/mL
same,"Stability in AB White, 8° C. (content by LCMSMS)",day 26,3.63 µg/mL
same,"Stability in AB White, 8° C. (content by LCMSMS)",day 29,3.52 µg/mL
same,"Stability in AB White, 8° C. (content by LCMSMS)",day 30,3.59 µg/mL
same,"Stability in AB White, 8° C. (content by LCMSMS)",day 60,3.58 µg/mL
same,"Stability in AB White, 8° C. (content by LCMSMS)",day 90,3.56 µg/mL
same,"Stability in AB White, 8° C. (content by LCMSMS)",day 120,3.56 µg/mL
same,"Stability in AB White, 8° C. (content by LCMSMS)",day 150,3.55 µg/mL
same,"Stability in AB White, 8° C. (content by LCMSMS)",day 180,3.59 µg/mL
same,"Stability in AB White, 8° C. (content by LCMSMS)",day 210,3.44 µg/mL
same,"Stability in AB White, 8° C. (content by LCMSMS)",day 240,3.56 µg/mL
same,"Stability in AB White, 8° C. (content by LCMSMS)",day 270,3.47 µg/mL
same,"Stability in AB White, 8° C. (content by LCMSMS)",day 300,3.46 µg/mL
same,"Stability in AB White, 8° C. (content by LCMSMS)",day 330,3.52 µg/mL
same,"Stability in AB White, 8° C. (content by LCMSMS)",day 360,3.50 µg/mL
same,"Stability in AB White, 8° C. (content by LCMSMS)",day 390,3.47 µg/mL
same,"Stability in AB White, 8° C. (content by LCMSMS)",day 420,3.49 µg/mL
same,"Stability in AB White, 8° C. (content by LCMSMS)",day 450,3.44 µg/mL
same,"Stability in AB White, 8° C. (content by LCMSMS)",day 480,3.44 µg/mL
same,"Stability in AB White, 8° C. (content by LCMSMS)",day 510,3.34 µg/mL
same,"Stability in AB White, 8° C. (content by LCMSMS)",day 540,3.32 µg/mL
same,"Stability in AB White, 8° C. (content by LCMSMS)",day 570,3.30 µg/mL
same,"Stability in AB White, 21-25° C. (content by LCMSMS)",day 0,3.6 µg/mL
same,"Stability in AB White, 21-25° C. (content by LCMSMS)",day 1,3.48 µg/mL
same,"Stability in AB White, 21-25° C. (content by LCMSMS)",day 2,3.58 µg/mL
same,"Stability in AB White, 21-25° C. (content by LCMSMS)",day 3,3.54 µg/mL
same,"Stability in AB White, 21-25° C. (content by LCMSMS)",day 5,3.55 µg/mL
same,"Stability in AB White, 21-25° C. (content by LCMSMS)",day 8,3.63 µg/mL
same,"Stability in AB White, 21-25° C. (content by LCMSMS)",day 9,3.55 µg/mL
same,"Stability in AB White, 21-25° C. (content by LCMSMS)",day 10,3.55 µg/mL
same,"Stability in AB White, 21-25° C. (content by LCMSMS)",day 11,3.59 µg/mL
same,"Stability in AB White, 21-25° C. (content by LCMSMS)",day 12,3.47 µg/mL
same,"Stability in AB White, 21-25° C. (content by LCMSMS)",day 15,3.48 µg/mL
same,"Stability in AB White, 21-25° C. (content by LCMSMS)",day 16,3.60 µg/mL
same,"Stability in AB White, 21-25° C. (content by LCMSMS)",day 17,3.51 µg/mL
same,"Stability in AB White, 21-25° C. (content by LCMSMS)",day 18,3.50 µg/mL
same,"Stability in AB White, 21-25° C. (content by LCMSMS)",day 19,3.59 µg/mL
same,"Stability in AB White, 21-25° C. (content by LCMSMS)",day 22,3.52 µg/mL
same,"Stability in AB White, 21-25° C. (content by LCMSMS)",day 23,3.57 µg/mL
same,"Stability in AB White, 21-25° C. (content by LCMSMS)",day 24,3.63 µg/mL
same,"Stability in AB White, 21-25° C. (content by LCMSMS)",day 25,3.54 µg/mL
same,"Stability in AB White, 21-25° C. (content by LCMSMS)",day 26,3.55 µg/mL
same,"Stability in AB White, 21-25° C. (content by LCMSMS)",day 29,3.62 µg/mL
same,"Stability in AB White, 21-25° C. (content by LCMSMS)",day 30,3.48 µg/mL
same,"Stability in AB White, 21-25° C. (content by LCMSMS)",day 60,3.50 µg/mL
same,"Stability in AB White, 21-25° C. (content by LCMSMS)",day 90,3.47 µg/mL
same,"Stability in AB White, 21-25° C. (content by LCMSMS)",day 120,3.45 µg/mL
same,"Stability in AB White, 21-25° C. (content by LCMSMS)",day 150,3.54 µg/mL
same,"Stability in AB White, 21-25° C. (content by LCMSMS)",day 180,3.52 µg/mL
same,"Stability in AB White, 21-25° C. (content by LCMSMS)",day 210,3.40 µg/mL
same,"Stability in AB White, 21-25° C. (content by LCMSMS)",day 240,3.41 µg/mL
same,"Stability in AB White, 21-25° C. (content by LCMSMS)",day 270,3.56 µg/mL
same,"Stability in AB White, 21-25° C. (content by LCMSMS)",day 300,3.52 µg/mL
same,"Stability in AB White, 21-25° C. (content by LCMSMS)",day 330,3.55 µg/mL
same,"Stability in AB White, 21-25° C. (content by LCMSMS)",day 360,3.49 µg/mL
same,"Stability in AB White, 21-25° C. (content by LCMSMS)",day 390,3.40 µg/mL
same,"Stability in AB White, 21-25° C. (content by LCMSMS)",day 420,3.46 µg/mL
same,"Stability in AB White, 21-25° C. (content by LCMSMS)",day 450,3.47 µg/mL
same,"Stability in AB White, 21-25° C. (content by LCMSMS)",day 480,3.30 µg/mL
same,"Stability in AB White, 21-25° C. (content by LCMSMS)",day 510,3.32 µg/mL
same,"Stability in AB White, 21-25° C. (content by LCMSMS)",day 540,3.44 µg/mL
same,"Stability in AB White, 21-25° C. (content by LCMSMS)",day 570,3.30 µg/mL
